According to PubChem BioAssay (NCI):
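96-well plates; 48 h exposure; 5 concentrations. Endpoints by linear interpolation between flanking doses. Not reached: highest tested concentration assigned. GI50 is the concentration that inhibits growth by half. Definition used: TGI = concentration required for complete inhibition of growth.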

What was measured:
Assay in all cases: DTP human tumour cell line panel, 48 h
A549 NSCLC = test system: A549 NSCLC
HOP-92 NSCLC = test system: HOP-92 NSCLC
786-0 renal = test system: 786-0 renal
A498 renal = test system: A498 renal
HL-60(TB) leukemia = test system: HL-60(TB) leukemia
M14 melanoma = test system: M14 melanoma
NCI-H522 lung = test system: NCI-H522 lung
ACHN renal = test system: ACHN renal
RXF 393 renal = test system: RXF 393 renal
SF-268 CNS = test system: SF-268 CNS
MALME-3M melanoma = test system: MALME-3M melanoma
COLO 205 colon = test system: COLO 205 colon
OVCAR-8 ovarian = test system: OVCAR-8 ovarian
DU-145 prostate = test system: DU-145 prostate
IGROV1 ovarian = test system: IGROV1 ovarian
NCI-H460 lung = test system: NCI-H460 lung
OVCAR-4 ovarian = test system: OVCAR-4 ovarian
OVCAR-5 ovarian = test system: OVCAR-5 ovarian
NCI/ADR-RES ovarian = test system: NCI/ADR-RES ovarian
SN12C renal = test system: SN12C renal
UO-31 renal = test system: UO-31 renal
MDA-MB-231 breast = test system: MDA-MB-231 breast
UACC-257 melanoma = test system: UACC-257 melanoma
UACC-62 melanoma = test system: UACC-62 melanoma
KM12 colon = test system: KM12 colon
SK-MEL-28 melanoma = test system: SK-MEL-28 melanoma
HCC-2998 colon = test system: HCC-2998 colon
HS 578T breast = test system: HS 578T breast
U251 CNS = test system: U251 CNS
SR leukemia = test system: SR leukemia
BT-549 breast = test system: BT-549 breast
SF-539 CNS = test system: SF-539 CNS
OVCAR-3 ovarian = test system: OVCAR-3 ovarian
PC-3 prostate = test system: PC-3 prostate
LOX IMVI melanoma = test system: LOX IMVI melanoma
RPMI-8226 leukemia = test system: RPMI-8226 leukemia
EKVX NSCLC = test system: EKVX NSCLC
HT29 colon = test system: HT29 colon
SNB-19 CNS = test system: SNB-19 CNS
MOLT-4 leukemia = test system: MOLT-4 leukemia
MCF7 breast = test system: MCF7 breast
K-562 leukemia = test system: K-562 leukemia
SK-MEL-2 melanoma = test system: SK-MEL-2 melanoma
MDA-MB-435 = test system: MDA-MB-435
T-47D breast = test system: T-47D breast
SK-MEL-5 melanoma = test system: SK-MEL-5 melanoma
CAKI-1 renal = test system: CAKI-1 renal
TK-10 renal = test system: TK-10 renal
NCI-H226 lung = test system: NCI-H226 lung
HCT-15 colon = test system: HCT-15 colon
SW-620 colon = test system: SW-620 colon
HOP-62 NSCLC = test system: HOP-62 NSCLC
SF-295 CNS = test system: SF-295 CNS
HCT-116 colon = test system: HCT-116 colon
SK-OV-3 ovarian = test system: SK-OV-3 ovarian
SNB-75 CNS = test system: SNB-75 CNS

**Q.** `COc1ccc2c(c1)Cc1c-2c(NN)nc2ccccc12` was tested. Which GI50 (A549 NSCLC) did it give?
**A.** 33.6 µM

**Q.** What about the TGI (A549 NSCLC) of the same compound?
**A.** > 100 µM

**Q.** What about the GI50 (HOP-92 NSCLC) of the same compound?
**A.** 22.8 µM

**Q.** What about the TGI (HOP-92 NSCLC) of the same compound?
**A.** 71.6 µM

**Q.** What about the GI50 (786-0 renal) of the same compound?
**A.** 40.4 µM

**Q.** And the TGI (786-0 renal)?
**A.** > 100 µM

**Q.** What about the GI50 (A498 renal) of the same compound?
**A.** > 100 µM

**Q.** And the TGI (A498 renal)?
**A.** > 100 µM

**Q.** And the GI50 (HL-60(TB) leukemia)?
**A.** 27.9 µM

**Q.** And the TGI (HL-60(TB) leukemia)?
**A.** > 100 µM

**Q.** And the GI50 (M14 melanoma)?
**A.** 40.1 µM

**Q.** What about the TGI (M14 melanoma) of the same compound?
**A.** > 100 µM

**Q.** What about the GI50 (NCI-H522 lung) of the same compound?
**A.** 20.2 µM

**Q.** What about the TGI (NCI-H522 lung) of the same compound?
**A.** 58.5 µM

**Q.** What about the GI50 (ACHN renal) of the same compound?
**A.** 44.7 µM

**Q.** And the TGI (ACHN renal)?
**A.** > 100 µM

**Q.** What about the GI50 (RXF 393 renal) of the same compound?
**A.** 30.5 µM

**Q.** What about the TGI (RXF 393 renal) of the same compound?
**A.** > 100 µM

**Q.** What about the GI50 (SF-268 CNS) of the same compound?
**A.** 25.3 µM

**Q.** And the TGI (SF-268 CNS)?
**A.** > 100 µM

**Q.** And the GI50 (MALME-3M melanoma)?
**A.** > 100 µM

**Q.** And the TGI (MALME-3M melanoma)?
**A.** > 100 µM

**Q.** And the GI50 (COLO 205 colon)?
**A.** 22.1 µM

**Q.** And the TGI (COLO 205 colon)?
**A.** > 100 µM

**Q.** And the GI50 (OVCAR-8 ovarian)?
**A.** 23.8 µM

**Q.** And the TGI (OVCAR-8 ovarian)?
**A.** > 100 µM

**Q.** And the GI50 (DU-145 prostate)?
**A.** 32 µM

**Q.** What about the TGI (DU-145 prostate) of the same compound?
**A.** > 100 µM

**Q.** What about the GI50 (IGROV1 ovarian) of the same compound?
**A.** 24.6 µM

**Q.** And the TGI (IGROV1 ovarian)?
**A.** > 100 µM

**Q.** And the GI50 (NCI-H460 lung)?
**A.** 14.9 µM

**Q.** What about the TGI (NCI-H460 lung) of the same compound?
**A.** 69 µM

**Q.** And the GI50 (OVCAR-4 ovarian)?
**A.** 31.1 µM

**Q.** What about the TGI (OVCAR-4 ovarian) of the same compound?
**A.** > 100 µM

**Q.** What about the GI50 (OVCAR-5 ovarian) of the same compound?
**A.** 35.5 µM

**Q.** What about the TGI (OVCAR-5 ovarian) of the same compound?
**A.** > 100 µM

**Q.** And the GI50 (NCI/ADR-RES ovarian)?
**A.** 21 µM

**Q.** What about the TGI (NCI/ADR-RES ovarian) of the same compound?
**A.** > 100 µM

**Q.** What about the GI50 (SN12C renal) of the same compound?
**A.** 40.3 µM

**Q.** What about the TGI (SN12C renal) of the same compound?
**A.** > 100 µM

**Q.** And the GI50 (UO-31 renal)?
**A.** 25.7 µM

**Q.** And the TGI (UO-31 renal)?
**A.** > 100 µM

**Q.** And the GI50 (MDA-MB-231 breast)?
**A.** 36 µM

**Q.** What about the TGI (MDA-MB-231 breast) of the same compound?
**A.** > 100 µM

**Q.** What about the GI50 (UACC-257 melanoma) of the same compound?
**A.** 53.7 µM

**Q.** And the TGI (UACC-257 melanoma)?
**A.** > 100 µM

**Q.** What about the GI50 (UACC-62 melanoma) of the same compound?
**A.** 25 µM

**Q.** And the TGI (UACC-62 melanoma)?
**A.** > 100 µM

**Q.** What about the GI50 (KM12 colon) of the same compound?
**A.** 13.8 µM

**Q.** And the TGI (KM12 colon)?
**A.** > 100 µM

**Q.** What about the GI50 (SK-MEL-28 melanoma) of the same compound?
**A.** 60.5 µM

**Q.** What about the TGI (SK-MEL-28 melanoma) of the same compound?
**A.** > 100 µM

**Q.** What about the GI50 (HCC-2998 colon) of the same compound?
**A.** 28.4 µM

**Q.** And the TGI (HCC-2998 colon)?
**A.** > 100 µM

**Q.** And the GI50 (HS 578T breast)?
**A.** 35.8 µM

**Q.** What about the TGI (HS 578T breast) of the same compound?
**A.** > 100 µM

**Q.** What about the GI50 (U251 CNS) of the same compound?
**A.** 21.5 µM

**Q.** And the TGI (U251 CNS)?
**A.** 68.7 µM

**Q.** And the GI50 (SR leukemia)?
**A.** 9.94 µM

**Q.** And the TGI (SR leukemia)?
**A.** > 100 µM

**Q.** And the GI50 (BT-549 breast)?
**A.** 50.4 µM

**Q.** What about the TGI (BT-549 breast) of the same compound?
**A.** > 100 µM

**Q.** What about the GI50 (SF-539 CNS) of the same compound?
**A.** 36.3 µM

**Q.** What about the TGI (SF-539 CNS) of the same compound?
**A.** > 100 µM

**Q.** And the GI50 (OVCAR-3 ovarian)?
**A.** 16.5 µM

**Q.** What about the TGI (OVCAR-3 ovarian) of the same compound?
**A.** 38.4 µM

**Q.** What about the GI50 (PC-3 prostate) of the same compound?
**A.** 19.8 µM

**Q.** What about the TGI (PC-3 prostate) of the same compound?
**A.** > 100 µM

**Q.** And the GI50 (LOX IMVI melanoma)?
**A.** 21.6 µM

**Q.** And the TGI (LOX IMVI melanoma)?
**A.** 78.8 µM

**Q.** What about the GI50 (RPMI-8226 leukemia) of the same compound?
**A.** 17.6 µM

**Q.** What about the TGI (RPMI-8226 leukemia) of the same compound?
**A.** 48.3 µM

**Q.** What about the GI50 (EKVX NSCLC) of the same compound?
**A.** 66.1 µM

**Q.** And the TGI (EKVX NSCLC)?
**A.** > 100 µM

**Q.** What about the GI50 (HT29 colon) of the same compound?
**A.** 31.5 µM

**Q.** And the TGI (HT29 colon)?
**A.** > 100 µM

**Q.** What about the GI50 (SNB-19 CNS) of the same compound?
**A.** 31.3 µM

**Q.** What about the TGI (SNB-19 CNS) of the same compound?
**A.** > 100 µM

**Q.** What about the GI50 (MOLT-4 leukemia) of the same compound?
**A.** 27.3 µM

**Q.** And the TGI (MOLT-4 leukemia)?
**A.** > 100 µM

**Q.** What about the GI50 (MCF7 breast) of the same compound?
**A.** 5.66 µM

**Q.** And the TGI (MCF7 breast)?
**A.** 48.5 µM

**Q.** What about the GI50 (K-562 leukemia) of the same compound?
**A.** 6.65 µM

**Q.** What about the TGI (K-562 leukemia) of the same compound?
**A.** 85.1 µM

**Q.** What about the GI50 (SK-MEL-2 melanoma) of the same compound?
**A.** 33.1 µM

**Q.** And the TGI (SK-MEL-2 melanoma)?
**A.** > 100 µM

**Q.** What about the GI50 (MDA-MB-435) of the same compound?
**A.** 3.8 µM

**Q.** And the TGI (MDA-MB-435)?
**A.** > 100 µM

**Q.** And the GI50 (T-47D breast)?
**A.** 26.5 µM

**Q.** And the TGI (T-47D breast)?
**A.** > 100 µM

**Q.** What about the GI50 (SK-MEL-5 melanoma) of the same compound?
**A.** 22 µM

**Q.** And the TGI (SK-MEL-5 melanoma)?
**A.** 58.3 µM

**Q.** And the GI50 (CAKI-1 renal)?
**A.** 39.8 µM

**Q.** And the TGI (CAKI-1 renal)?
**A.** > 100 µM

**Q.** What about the GI50 (TK-10 renal) of the same compound?
**A.** 57.3 µM

**Q.** What about the TGI (TK-10 renal) of the same compound?
**A.** > 100 µM

**Q.** What about the GI50 (NCI-H226 lung) of the same compound?
**A.** 64 µM

**Q.** What about the TGI (NCI-H226 lung) of the same compound?
**A.** > 100 µM

**Q.** What about the GI50 (HCT-15 colon) of the same compound?
**A.** 25.5 µM

**Q.** What about the TGI (HCT-15 colon) of the same compound?
**A.** > 100 µM

**Q.** And the GI50 (SW-620 colon)?
**A.** 21.1 µM

**Q.** What about the TGI (SW-620 colon) of the same compound?
**A.** > 100 µM

**Q.** And the GI50 (HOP-62 NSCLC)?
**A.** 56.6 µM

**Q.** And the TGI (HOP-62 NSCLC)?
**A.** > 100 µM

**Q.** And the GI50 (SF-295 CNS)?
**A.** 25.7 µM

**Q.** What about the TGI (SF-295 CNS) of the same compound?
**A.** > 100 µM

**Q.** What about the GI50 (HCT-116 colon) of the same compound?
**A.** 24.4 µM

**Q.** And the TGI (HCT-116 colon)?
**A.** 75.7 µM

**Q.** What about the GI50 (SK-OV-3 ovarian) of the same compound?
**A.** 16.9 µM

**Q.** And the TGI (SK-OV-3 ovarian)?
**A.** 77.6 µM

**Q.** And the GI50 (SNB-75 CNS)?
**A.** 42.8 µM

**Q.** What about the TGI (SNB-75 CNS) of the same compound?
**A.** > 100 µM
